Results from PMC5218480 (PLoS ONE, 2017).

System: MV-4-11 cells
Assay: Gene expression microarray analysis (Affymetrix PrimeView) and GSEA
Type: cell-based, human
Set-up: RFU PODN (11730768_x_at) / Fold change /veh PODN (11730768_x_at) / RFU LINC00158 (11744669_a_at) / Fold change /veh LINC00158 (11744669_a_at) / RFU DUSP10 (11751237_a_at) / Fold change /veh DUSP10 (11751237_a_at) / RFU ID3 (11757404_x_at) / Fold change /veh ID3 (11757404_x_at) / RFU PLEKHG5 (11737974_s_at) / Fold change /veh PLEKHG5 (11737974_s_at) / RFU LRRC4B (11730491_at) / Fold change /veh LRRC4B (11730491_at) / RFU GIMAP4 (11747438_a_at) / Fold change /veh GIMAP4 (11747438_a_at) / RFU KRT8 (11758183_x_at) / Fold change /veh KRT8 (11758183_x_at) / RFU CNN1 (11734310_a_at) / Fold change /veh CNN1 (11734310_a_at) / RFU VPS37D (11726825_at) / Fold change /veh VPS37D (11726825_at) / RFU C10orf10 (11716522_x_at) / Fold change /veh C10orf10 (11716522_x_at) / RFU KIR2DL2 /// KIR2DL4 /// KIR2DL5A /// KIR2DL5B /// KIR2DS1 /// KIR2DS2 /// KIR2DS3 /// KIR2DS4 /// KIR3DL3 /// KIR3DL3 /// KIR3DS1 (11738374_at) / Fold change /veh KIR2DL2 /// KIR2DL4 /// KIR2DL5A /// KIR2DL5B /// KIR2DS1 /// KIR2DS2 /// KIR2DS3 /// KIR2DS4 /// KIR3DL3 /// KIR3DL3 /// KIR3DS1 (11738374_at) / RFU C1QL1 (11718748_at) / Fold change /veh C1QL1 (11718748_at) / RFU TMPRSS4 (11747572_a_at) / Fold change /veh TMPRSS4 (11747572_a_at) / RFU HAMP (11756126_x_at) / Fold change /veh HAMP (11756126_x_at) / RFU RNFT2 (11725882_a_at) / Fold change /veh RNFT2 (11725882_a_at) / RFU NR4A2 (11747474_a_at) / Fold change /veh NR4A2 (11747474_a_at) / RFU ABCC12 (11746883_a_at) / Fold change /veh ABCC12 (11746883_a_at) / RFU TMEM136 (11760407_x_at) / Fold change /veh TMEM136 (11760407_x_at) / RFU CLDN22 /// WWC2 (11732394_at) / Fold change /veh CLDN22 /// WWC2 (11732394_at) / RFU HLA-DPB1 (11760878_x_at) / Fold change /veh HLA-DPB1 (11760878_x_at) / RFU SPINT1 (11716480_a_at) / Fold change /veh SPINT1 (11716480_a_at) / RFU GAP43 (11754022_s_at) / Fold change /veh GAP43 (11754022_s_at) / RFU A4GNT (11735810_at) / Fold change /veh A4GNT (11735810_at) / RFU PRB3 (11715151_x_at) / Fold change /veh PRB3 (11715151_x_at) / RFU TUBB4B (11761932_at) / Fold change /veh TUBB4B (11761932_at) / RFU CAPN14 (11732068_a_at) / Fold change /veh CAPN14 (11732068_a_at) / RFU TMCC2 (11721928_a_at) / Fold change /veh TMCC2 (11721928_a_at) / RFU IRGQ (11745062_a_at) / Fold change /veh IRGQ (11745062_a_at) / RFU FAM174B (11720279_a_at) / Fold change /veh FAM174B (11720279_a_at) / RFU TMPRSS4 (11748680_a_at) / Fold change /veh TMPRSS4 (11748680_a_at) / RFU FAM212B (11763350_a_at) / Fold change /veh FAM212B (11763350_a_at) / RFU PLEKHG5 (11743358_a_at) / Fold change /veh PLEKHG5 (11743358_a_at) / RFU ZSCAN30 (11745921_a_at) / Fold change /veh ZSCAN30 (11745921_a_at) / RFU CMKLR1 (11741424_a_at) / Fold change /veh CMKLR1 (11741424_a_at) / RFU LOC101060620 /// MAPK8IP1 (11723275_at) / Fold change /veh LOC101060620 /// MAPK8IP1 (11723275_at) / RFU SPTSSB (11747773_x_at) / Fold change /veh SPTSSB (11747773_x_at) / RFU PRSS12 (11739890_at) / Fold change /veh PRSS12 (11739890_at) / RFU BIN1 (11741810_x_at) / Fold change /veh BIN1 (11741810_x_at) / RFU WNT11 (11732464_a_at) / Fold change /veh WNT11 (11732464_a_at) / RFU C10orf10 (11716521_a_at) / Fold change /veh C10orf10 (11716521_a_at) / RFU C5orf56 (11738089_at) / Fold change /veh C5orf56 (11738089_at) / RFU CYB561 (11721691_x_at) / Fold change /veh CYB561 (11721691_x_at) / RFU ANKRD19P (11752326_a_at) / Fold change /veh ANKRD19P (11752326_a_at) / RFU OR2T12 /// OR2T33 /// OR2T8 (11738714_s_at) / Fold change /veh OR2T12 /// OR2T33 /// OR2T8 (11738714_s_at) / RFU VCAN (11748164_a_at) / Fold change /veh VCAN (11748164_a_at) / RFU JSRP1 (11732532_at) / Fold change /veh JSRP1 (11732532_at) / RFU KRTAP10-11 (11738290_x_at) / Fold change /veh KRTAP10-11 (11738290_x_at) / RFU MYO3A (11730013_a_at) / Fold change /veh MYO3A (11730013_a_at) / RFU EBF3 (11725865_a_at) / Fold change /veh EBF3 (11725865_a_at) / RFU CAMK2N1 (11719241_x_at) / Fold change /veh CAMK2N1 (11719241_x_at) / RFU C5orf56 (11738088_a_at) / Fold change /veh C5orf56 (11738088_a_at) / RFU OLFML3 (11715873_a_at) / Fold change /veh OLFML3 (11715873_a_at) / RFU LOC100653217 /// NTM (11731650_a_at) / Fold change /veh LOC100653217 /// NTM (11731650_a_at) / RFU MAPK11 (11762145_a_at) / Fold change /veh MAPK11 (11762145_a_at) / RFU FIZ1 (11724087_x_at) / Fold change /veh FIZ1 (11724087_x_at) / RFU OASL (11726364_x_at) / Fold change /veh OASL (11726364_x_at) / RFU SOX15 (11748057_x_at) / Fold change /veh SOX15 (11748057_x_at) / RFU CD79A (11719716_a_at) / Fold change /veh CD79A (11719716_a_at) / RFU HIST1H1D (11736915_at) / Fold change /veh HIST1H1D (11736915_at) / RFU CASKIN2 (11723855_a_at) / Fold change /veh CASKIN2 (11723855_a_at) / RFU LOC730098 (11760151_x_at) / Fold change /veh LOC730098 (11760151_x_at) / RFU OR4N2 (11742367_at) / Fold change /veh OR4N2 (11742367_at) / RFU PRRT2 (11749266_a_at) / Fold change /veh PRRT2 (11749266_a_at) / RFU SNX32 (11753110_a_at) / Fold change /veh SNX32 (11753110_a_at) / RFU CDHR5 (11726645_a_at) / Fold change /veh CDHR5 (11726645_a_at) / RFU RCAN1 (11760418_a_at) / Fold change /veh RCAN1 (11760418_a_at) / RFU FAM167A (11723789_a_at) / Fold change /veh FAM167A (11723789_a_at) / RFU FAM26E (11764081_at) / Fold change /veh FAM26E (11764081_at) / RFU ISYNA1 (11749810_s_at) / Fold change /veh ISYNA1 (11749810_s_at) / RFU ACY1 (11761880_at) / Fold change /veh ACY1 (11761880_at) / RFU 11764098_at / Fold change /veh 11764098_at / RFU SAMD14 (11745864_x_at) / Fold change /veh SAMD14 (11745864_x_at) / RFU NPB (11741838_a_at) / Fold change /veh NPB (11741838_a_at) / RFU TMPRSS6 (11731388_a_at) / Fold change /veh TMPRSS6 (11731388_a_at) / RFU KRTAP10-2 (11738614_at) / Fold change /veh KRTAP10-2 (11738614_at) / RFU ARHGAP8 /// PRR5-ARHGAP8 (11727945_x_at) / Fold change /veh ARHGAP8 /// PRR5-ARHGAP8 (11727945_x_at) / RFU KRTAP5-7 /// NADSYN1 (11734609_at) / Fold change /veh KRTAP5-7 /// NADSYN1 (11734609_at) / RFU RASL12 (11751679_a_at) / Fold change /veh RASL12 (11751679_a_at) / RFU CDKN2B (11736163_a_at) / Fold change /veh CDKN2B (11736163_a_at) / RFU PRF1 (11729649_at) / Fold change /veh PRF1 (11729649_at) / RFU, ZNF638 /// ZNF638-IT1 / Fold change vs veh, ZNF638 /// ZNF638-IT1 / RFU, PANK3 / Fold change vs veh, PANK3 / RFU, SH3YL1 / Fold change vs veh, SH3YL1 / RFU, ZEB2 / Fold change vs veh, ZEB2 / RFU, NRIP1 / Fold change vs veh, NRIP1 / RFU, PTTG1IP / Fold change vs veh, PTTG1IP / RFU, CAPN2 / Fold change vs veh, CAPN2 / RFU, MED14 / Fold change vs veh, MED14 / RFU, SNORA58 / Fold change vs veh, SNORA58 / RFU, C1orf63 / Fold change vs veh, C1orf63 / RFU, LRRFIP1 / Fold change vs veh, LRRFIP1 / RFU, NDUFAF7 / Fold change vs veh, NDUFAF7 / RFU, SLC12A2 / Fold change vs veh, SLC12A2 / RFU, IBTK / Fold change vs veh, IBTK / RFU, ESF1 / Fold change vs veh, ESF1 / Fold change vs veh, TMEM50B / RFU, TAOK1 / Fold change vs veh, TAOK1 / RFU, ACBD3 / Fold change vs veh, ACBD3 / RFU, TMA16 / Fold change vs veh, TMA16 / RFU, RWDD3 / Fold change vs veh, RWDD3 / RFU, BCAT1 / Fold change vs veh, BCAT1 / RFU, EDEM3 / Fold change vs veh, EDEM3 / RFU, TMEM33 / Fold change vs veh, TMEM33 / RFU, WDR75 / Fold change vs veh, WDR75 / RFU, AHCTF1 / Fold change vs veh, AHCTF1 / RFU, TFRC / Fold change vs veh, TFRC / RFU, ZDHHC17 / Fold change vs veh, ZDHHC17 / RFU, NOM1 / Fold change vs veh, NOM1 / RFU, ARL8B / Fold change vs veh, ARL8B / RFU, ZBTB11 / Fold change vs veh, ZBTB11 / RFU, TAMM41 / Fold change vs veh, TAMM41 / RFU, KIAA1704 /// LOC100996395 / Fold change vs veh, KIAA1704 /// LOC100996395 / RFU, ING1 / Fold change vs veh, ING1 / RFU, TRMT61B / Fold change vs veh, TRMT61B / RFU, FUBP3 / Fold change vs veh, FUBP3 / RFU, TP53 / Fold change vs veh, TP53 / RFU, TNKS2 / Fold change vs veh, TNKS2 / RFU, ZFP14 / Fold change vs veh, ZFP14 / RFU, ACTR2 / Fold change vs veh, ACTR2 / RFU, PPP3R1 / Fold change vs veh, PPP3R1 / RFU, PIK3R1 / Fold change vs veh, PIK3R1 / RFU, HNRNPA1 / Fold change vs veh, HNRNPA1 / RFU, RNF170 / Fold change vs veh, RNF170 / RFU, ZNF28 / Fold change vs veh, ZNF28 / RFU, RNGTT / Fold change vs veh, RNGTT / RFU, OGT / Fold change vs veh, OGT / RFU, BRD1 / Fold change vs veh, BRD1 / RFU, MARS / Fold change vs veh, MARS / RFU, ZNF655 / Fold change vs veh, ZNF655 / RFU, FAHD1 / Fold change vs veh, FAHD1 / RFU, BDP1 / Fold change vs veh, BDP1 / RFU, LRRCC1 / Fold change vs veh, LRRCC1 / RFU, ARID1A / Fold change vs veh, ARID1A / RFU, ZNF146 / Fold change vs veh, ZNF146 / RFU, ZNF330 / Fold change vs veh, ZNF330 / RFU, GPN3 / Fold change vs veh, GPN3 / RFU, C9orf123 / Fold change vs veh, C9orf123 / RFU, N4BP2L2 / Fold change vs veh, N4BP2L2 / RFU, ARFIP1 / Fold change vs veh, ARFIP1 / RFU, FAM179B / Fold change vs veh, FAM179B / RFU, BCL10 / Fold change vs veh, BCL10 / RFU, UHRF1BP1L / Fold change vs veh, UHRF1BP1L / RFU, BET1 / Fold change vs veh, BET1 / RFU, CNOT2 / Fold change vs veh, CNOT2 / RFU, ZNF268 / Fold change vs veh, ZNF268 / Fold change vs veh, ZNF507 / RFU, DGCR2 / Fold change vs veh, DGCR2 / RFU, WDSUB1 / Fold change vs veh, WDSUB1 / Fold change vs veh, HSP90B1 /// MIR3652 / RFU, ADSS / Fold change vs veh, ADSS / RFU, GK / Fold change vs veh, GK / RFU, ZNF148 / Fold change vs veh, ZNF148 / RFU, TAF9 / Fold change vs veh, TAF9 / RFU, SLC1A5 / Fold change vs veh, SLC1A5 / RFU, SLMO2 / Fold change vs veh, SLMO2 / RFU, ABCC4 / Fold change vs veh, ABCC4 / RFU, LOC101060439 /// RAP1B / Fold change vs veh, LOC101060439 /// RAP1B / RFU, RFX7 / Fold change vs veh, RFX7 / RFU, GTPBP10 / Fold change vs veh, GTPBP10 / RFU, CNEP1R1 / Fold change vs veh, CNEP1R1 / RFU, BIVM-ERCC5 /// ERCC5 / Fold change vs veh, BIVM-ERCC5 /// ERCC5 / RFU, ILF3 / Fold change vs veh, ILF3 / RFU 11762660_at / Fold change /veh 11762660_at / RFU VCAN (11757783_s_at) / Fold change /veh VCAN (11757783_s_at) / RFU DDX43 (11728927_at) / Fold change /veh DDX43 (11728927_at) / RFU KRT8 (11758188_x_at) / Fold change /veh KRT8 (11758188_x_at) / RFU NKD1 (11759106_at) / Fold change /veh NKD1 (11759106_at) / RFU SRD5A1 (11742802_a_at) / Fold change /veh SRD5A1 (11742802_a_at) / RFU TPSAB1 /// TPSB2 (11721975_s_at) / Fold change /veh TPSAB1 /// TPSB2 (11721975_s_at) / RFU GSTM3 (11746129_a_at) / Fold change /veh GSTM3 (11746129_a_at) / RFU IL23R (11737362_x_at) / Fold change /veh IL23R (11737362_x_at) / RFU TMEM51 (11727254_a_at) / Fold change /veh TMEM51 (11727254_a_at) / RFU PIWIL2 (11732686_x_at) / Fold change /veh PIWIL2 (11732686_x_at) / RFU ORM1 (11744905_x_at) / Fold change /veh ORM1 (11744905_x_at) / RFU CCDC152 (11743942_at) / Fold change /veh CCDC152 (11743942_at) / RFU ECM1 (11717891_a_at) / Fold change /veh ECM1 (11717891_a_at) / RFU IL23R (11748794_a_at) / Fold change /veh IL23R (11748794_a_at) / RFU TNFAIP8L3 (11732012_x_at) / Fold change /veh TNFAIP8L3 (11732012_x_at) / RFU MBOAT4 (11741988_at) / Fold change /veh MBOAT4 (11741988_at) / RFU 11764193_at / Fold change /veh 11764193_at / RFU TMEM53 (11763286_at) / Fold change /veh TMEM53 (11763286_at) / RFU MAGEB2 (11727129_at) / Fold change /veh MAGEB2 (11727129_at) / RFU TMEM200A (11744735_a_at) / Fold change /veh TMEM200A (11744735_a_at) / RFU CCDC152 (11751479_a_at) / Fold change /veh CCDC152 (11751479_a_at) / RFU FAM211A (11726209_a_at) / Fold change /veh FAM211A (11726209_a_at) / RFU RGS16 (11746705_a_at) / Fold change /veh RGS16 (11746705_a_at) / RFU VCAN (11755009_s_at) / Fold change /veh VCAN (11755009_s_at) / RFU RHOB (11743442_s_at) / Fold change /veh RHOB (11743442_s_at) / RFU RGS16 (11720943_a_at) / Fold change /veh RGS16 (11720943_a_at) / RFU RGS16 (11720944_at) / Fold change /veh RGS16 (11720944_at) / RFU, VPS4B / Fold change vs veh, VPS4B / RFU, CREB1 / Fold change vs veh, CREB1 / RFU, DNAJC13 / Fold change vs veh, DNAJC13 / RFU, GNAQ / Fold change vs veh, GNAQ / RFU, CDK5R1 / Fold change vs veh, CDK5R1 / RFU, ZRANB3 / Fold change vs veh, ZRANB3 / RFU, CUL4A / Fold change vs veh, CUL4A / RFU, CCNY / Fold change vs veh, CCNY / RFU, UFL1 / Fold change vs veh, UFL1 / RFU, COG3 / Fold change vs veh, COG3 / RFU, DIAPH2 / Fold change vs veh, DIAPH2 / RFU, SKA2 / Fold change vs veh, SKA2 / RFU, AFF3 / Fold change vs veh, AFF3 / RFU, LMF1 / Fold change vs veh, LMF1 / RFU, IPO11 / Fold change vs veh, IPO11 / RFU, DFFB / Fold change vs veh, DFFB / RFU, FOXP1 / Fold change vs veh, FOXP1 / RFU, CARD8 / Fold change vs veh, CARD8 / RFU, STRN3 / Fold change vs veh, STRN3 / RFU, ADK / Fold change vs veh, ADK / RFU, RASSF2 / Fold change vs veh, RASSF2 / RFU, WIPF1 / Fold change vs veh, WIPF1 / RFU, LARP1B / Fold change vs veh, LARP1B / RFU, RASA1 / Fold change vs veh, RASA1 / RFU, RB1 / Fold change vs veh, RB1 / RFU, PPFIA1 / Fold change vs veh, PPFIA1 / RFU, MAT2A / Fold change vs veh, MAT2A / RFU, CCT5 / Fold change vs veh, CCT5 / RFU, WDR92 / Fold change vs veh, WDR92 / RFU, CUX1 / Fold change vs veh, CUX1 / RFU, TTC7A / Fold change vs veh, TTC7A / RFU, TMEM135 / Fold change vs veh, TMEM135 / RFU, DEPTOR / Fold change vs veh, DEPTOR / RFU, CPM / Fold change vs veh, CPM / RFU, DNAJB6 / Fold change vs veh, DNAJB6 / RFU, CACNA2D3 / Fold change vs veh, CACNA2D3 / RFU, DTX4 / Fold change vs veh, DTX4 / RFU, TFCP2 / Fold change vs veh, TFCP2 / RFU, GMCL1 /// GMCL1P1 / Fold change vs veh, GMCL1 /// GMCL1P1 / RFU, AEBP2 / Fold change vs veh, AEBP2 / RFU, SNHG1 /// SNORD22 /// SNORD25 /// SNORD26 /// SNORD27 /// SNORD28 /// SNORD29 /// SNORD31 / Fold change vs veh, SNHG1 /// SNORD22 /// SNORD25 /// SNORD26 /// SNORD27 /// SNORD28 /// SNORD29 /// SNORD31 / Fold change (Aza/veh), C12orf56 (ProbeSet 11735607_a_at) / Fold change (ACY-1035/veh), C12orf56 (ProbeSet 11735607_a_at) / Fold change (Aza/veh), FGFR1OP (ProbeSet 11751329_s_at) / Fold change (ACY-1035/veh), FGFR1OP (ProbeSet 11751329_s_at) / Fold change (Aza/veh), VPS36 (ProbeSet 11739960_a_at) / Fold change (ACY-1035/veh), VPS36 (ProbeSet 11739960_a_at) / RFU SYPL1 (11715823_x_at) / Fold change /veh SYPL1 (11715823_x_at) / RFU IGFBP7 (11715501_s_at) / Fold change /veh IGFBP7 (11715501_s_at) / RFU REEP3 (11722064_at) / Fold change /veh REEP3 (11722064_at) / RFU IGLL1 (11728026_x_at) / Fold change /veh IGLL1 (11728026_x_at): dose or concentration left out as unconfirmed
Conditions: ProbeSet 11755425_a_at; LIST B

## Nc1ncn([C@@H]2O[C@H](CO)[C@@H](O)[C@H]2O)c(=O)n1 [azacitidine]
  Fold change vs veh, FAM179B: 0.87
